In ChEMBL document CHEMBL1201862, “PubChem BioAssay data set” (2004):
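These data come from cells grown in 96-well plates and exposed to compound for 48 hours at five concentrations. GI50 marks 50% less growth.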 The source made the active and inactive calls. No stated cut-off is given here; in the data, active = GI50 up to about 1.1 µM and inactive = higher.

Legend:
Assay in all cases: NCI tumour cell line growth inhibition, 48 h
A498 = system: A498
IGROV-1 = system: IGROV-1
SF-295 = system: SF-295
SN12C = system: SN12C
A549 = system: A549
NCI-H460 = system: NCI-H460
RPMI-8226 = system: RPMI-8226
UACC-257 = system: UACC-257
SK-MEL-5 = system: SK-MEL-5
HCC 2998 = system: HCC 2998
DMS-273 = system: DMS-273
SF-268 = system: SF-268
SNB-78 = system: SNB-78
KM12 = system: KM12
K562 = system: K562
SK-MEL-28 = system: SK-MEL-28
RXF 631 = system: RXF 631
RXF 393 = system: RXF 393
SK-OV-3 = system: SK-OV-3
OVCAR-3 = system: OVCAR-3
XF498 = system: XF498
DLD-1 = system: DLD-1
HCT-15 = system: HCT-15
OVCAR-8 = system: OVCAR-8
NCI-H23 = system: NCI-H23
M14 = system: M14
LOX IMVI = system: LOX IMVI
SNB-75 = system: SNB-75
NCI-H522 = system: NCI-H522
HL-60 = system: HL-60
CCRF-CEM = system: CCRF-CEM
SW-620 = system: SW-620
DMS-114 = system: DMS-114
786-0 = system: 786-0
Malme-3M = system: Malme-3M
MOLT-4 = system: MOLT-4
M19-MEL = system: M19-MEL
OVCAR-4 = system: OVCAR-4
CAKI-1 = system: CAKI-1
HCT-116 = system: HCT-116
OVCAR-5 = system: OVCAR-5
TK-10 = system: TK-10
UO-31 = system: UO-31
SNB-19 = system: SNB-19
U-251 = system: U-251
EKVX = system: EKVX
HOP-62 = system: HOP-62
HT-29 = system: HT-29
UACC-62 = system: UACC-62
LXFL 529 = system: LXFL 529
ACHN = system: ACHN
SF-539 = system: SF-539
HOP-92 = system: HOP-92
SK-MEL-2 = system: SK-MEL-2
COLO 205 = system: COLO 205
SR = system: SR
NCI-H226 = system: NCI-H226
KM-20L2 = system: KM-20L2

Measured: GI50

CCOC(=O)C1CC(=O)C=C2CCCCC21 (centres undefined)
> 100 µM: HCT-15
inactive: A498 > 100 µM | IGROV-1 > 100 µM | SF-295 > 100 µM | SN12C > 100 µM | A549 > 100 µM | NCI-H460 > 100 µM | RPMI-8226 > 100 µM | UACC-257 > 100 µM | SK-MEL-5 > 100 µM | HCC 2998 > 100 µM | DMS-273 > 100 µM | SF-268 > 100 µM | SNB-78 > 100 µM | KM12 > 100 µM | K562 > 100 µM | SK-MEL-28 > 100 µM | RXF 631 > 100 µM | RXF 393 > 100 µM | SK-OV-3 > 100 µM | OVCAR-3 > 100 µM | XF498 > 100 µM | DLD-1 > 100 µM | OVCAR-8 > 100 µM | NCI-H23 > 100 µM | M14 > 100 µM | LOX IMVI > 100 µM | SNB-75 99.3 µM | NCI-H522 > 100 µM | HL-60 > 100 µM | CCRF-CEM > 100 µM | SW-620 > 100 µM | DMS-114 > 100 µM | 786-0 > 100 µM | Malme-3M > 100 µM | MOLT-4 > 100 µM | M19-MEL > 100 µM | OVCAR-4 > 100 µM | CAKI-1 > 100 µM | HCT-116 > 100 µM | OVCAR-5 > 100 µM | TK-10 > 100 µM | UO-31 > 100 µM | SNB-19 > 100 µM | U-251 > 100 µM | EKVX > 100 µM | HOP-62 > 100 µM | HT-29 > 100 µM | UACC-62 > 100 µM | LXFL 529 > 100 µM | ACHN > 100 µM | SF-539 > 100 µM | HOP-92 > 100 µM | SK-MEL-2 > 100 µM | COLO 205 > 100 µM

N#CC(C#N)=C1NC(=O)C(c2ccccc2)C(=O)N1 (centres undefined)
inactive: A498 > 100 µM | SR > 100 µM | IGROV-1 > 100 µM | SF-295 > 100 µM | SN12C > 100 µM | A549 > 100 µM | NCI-H460 > 100 µM | RPMI-8226 > 100 µM | UACC-257 > 100 µM | NCI-H226 > 100 µM | SK-MEL-5 > 100 µM | HCC 2998 > 100 µM | DMS-273 > 100 µM | SF-268 > 100 µM | SNB-78 > 100 µM | KM12 > 100 µM | K562 > 100 µM | RXF 631 > 100 µM | RXF 393 > 100 µM | SK-OV-3 > 100 µM | OVCAR-3 > 100 µM | XF498 > 100 µM | DLD-1 > 100 µM | KM-20L2 > 100 µM | OVCAR-8 > 100 µM | NCI-H23 > 100 µM | M14 > 100 µM | LOX IMVI > 100 µM | SNB-75 > 100 µM | NCI-H522 > 100 µM | HL-60 > 100 µM | CCRF-CEM > 100 µM | SW-620 > 100 µM | DMS-114 > 100 µM | 786-0 > 100 µM | Malme-3M > 100 µM | MOLT-4 > 100 µM | M19-MEL > 100 µM | OVCAR-4 > 100 µM | CAKI-1 > 100 µM | HCT-116 > 100 µM | OVCAR-5 > 100 µM | TK-10 > 100 µM | UO-31 > 100 µM | SNB-19 > 100 µM | U-251 > 100 µM | EKVX > 100 µM | HOP-62 > 100 µM | HT-29 > 100 µM | UACC-62 > 100 µM | LXFL 529 > 100 µM | SF-539 > 100 µM | HOP-92 > 100 µM | COLO 205 > 100 µM
> 100 µM: HCT-15

CCCc1cc(OC(=O)c2c(O)cc(OC)cc2CCC)cc(O)c1C(=O)O
inactive: A498 28.9 µM | IGROV-1 47.9 µM | A549 30.2 µM | NCI-H460 23.9 µM | RPMI-8226 24.2 µM | UACC-257 18.8 µM | HCC 2998 25.2 µM | DMS-273 32.1 µM | SNB-78 25 µM | KM12 28.2 µM | K562 32.5 µM | SK-MEL-28 28.2 µM | RXF 631 26.3 µM | RXF 393 16.6 µM | SK-OV-3 22.4 µM | OVCAR-3 20.6 µM | XF498 25.9 µM | DLD-1 36.5 µM | KM-20L2 37.4 µM | OVCAR-8 37.5 µM | NCI-H23 18 µM | M14 28.4 µM | LOX IMVI 23.8 µM | SNB-75 27.5 µM | NCI-H522 16 µM | HL-60 23 µM | CCRF-CEM 32.8 µM | SW-620 37.9 µM | DMS-114 19.6 µM | 786-0 36 µM | Malme-3M 17.5 µM | MOLT-4 29.5 µM | M19-MEL 42.8 µM | HCT-116 17.4 µM | OVCAR-5 35 µM | TK-10 48.5 µM | UO-31 13 µM | SNB-19 25.1 µM | U-251 23.9 µM | EKVX 26.2 µM | HOP-62 16.6 µM | HT-29 33 µM | UACC-62 35.7 µM | LXFL 529 24.1 µM | ACHN 27.9 µM | SF-539 18 µM | HOP-92 13.5 µM | SK-MEL-2 20.5 µM | COLO 205 26.4 µM
